{
  "source": "patent US20190142954A1",
  "about": "“POLYMER-BONDED CA4 PHARMACEUTICAL COMPOUND AND PREPARATION METHOD THEREFOR” (priority 2016, published 2019)",
  "key": {"[1]": {"tested_on": "C26 murine colon cancer cells", "test": "Therapeutic effect on tumor by single administration (pathological H&E analysis)", "format": "in vivo", "conditions": "C26 tumor in Balb/C mice, tail vein injection, 50 mg CA4/kg, 72 hours", "method": "6 Balb/C mice (5-6 weeks old, female, body weight of approximately 20 g) were utilized, and C26 murine colon cancer cells were seeded at the right underarm at 2.0×10^6/mouse, respectively. […] The administration dosage was 50 mg CA4/kg body weight. The mice were sacrificed after 72 hours. Tumor was collected, and pathological H&E analysis was performed."}, "[2]": {"tested_on": "C26 cells", "test": "Tumor inhibition effect of polymer-bonded CA4 pharmaceutical compound", "format": "in vivo", "conditions": "C26 tumor in Balb/C mice, 50.0 mg CA4/kg on day 1, 5 and 9, observation until day 17", "method": "The administration dosage was 50.0 mg CA4/kg body weight. Tumor was measured 3 times per week and body weights of mice were recorded, and observation was not stopped until day 17."}},
  "data": [
    {"smiles": "COc1ccc(/C=C\\c2cc(OC)c(OC)c(OC)c2)cc1OP(=O)([O-])[O-].[Na+].[Na+]", "note": "[CA4P, Combretastatin A4 phosphate disodium]", "values": [
      {"measurement": "tumor pathological analysis after single administration", "setting": "[1]", "result": "a wide range of recurrence occurred in the tumor"},
      {"measurement": "tumor inhibition rate", "setting": "[2]", "result": 24.0, "unit": "%"}
    ]}
  ]
}
